Data: patent EP1826280A2 (priority 1992, dated 1994)

Test system: vascular smooth muscle cells
Test: 24 hour 3H-leucine protein inhibition and 3H-thymidine DNA synthesis inhibition assays
Assay type: cell-based
Details: 24 hour exposure; for inhibition of DNA synthesis compared with protein synthesis: in the presence of 5% FBS
Procedure: The ability of various therapeutic agents to inhibit DNA synthesis and protein synthesis in vascular smooth muscle cells was tested. ^3H-leucine and ^3H-thymidine uptake and cytotoxicity assays were conducted in accordance with the following protocols.
^3H-leucine uptake: Vascular smooth muscle cells at 40,000 cells/ml were seeded in sterile 24 well plates at 1ml/well. The plates were incubated overnight at 37°C, 5% CO2, 95% air in a humidified atmosphere (saturation). Log dilutions of the therapeutic agent of interest were incubated with the vascular smooth muscle cells for 5 minutes or 24 hours. Samples of the therapeutic agents were diluted in DMEM:F-12 media (Whittaker Bioproducts, Walkersville, Maryland) with 5% fetal bovine serum (GBS, Gibco) and 5% Serum Plus® (JRH Biologicals). Following therapeutic agent incubation, the solution was aspirated, and 1ml/well of 0.5 microcurie/ml ^3H-leucine in leucine free DMEM (Dulbecco's Modified Eagle's Medium) with 5% Serum Plus® was added. The plates were re-incubated overnight at 37°C, 5% CO2 in a humidified atmosphere. The cells were visually graded using an inverted microscope using a scoring scale to determine viability and cell number. The 1 to 3 grade is based upon percent of cell viability and number compared to control wells, with 3=100%, 2=70%-100% and 1=0%-70%. A record of this scoring assisted in determining the immediate cytotoxic effect of the therapeutic agents. The media was then aspirated, and the cells were washed twice with cold 5% TCA. 400 microliters of 0.2M KaOH was added per well, and the plates were incubated for two hours at room temperature on a rotating platform. 200 microliters per well of the cell solution was transferred into plastic scintillation vials (Bio-Rad Laboratories), and 4 milliliters of Bio-Safe® II liquid scintillation fluid was added prior to vortexing. Vials were counted on a Beckman LS2600 Liquid scintillation Counter interfaced with Beckman "Data Capture" software for conversion to a Lotus 1-2-3® file and analysis using Lotus 1-2-3®.
^3H-thymidine uptake: Vascular smooth muscle cells were incubated in complete media with 5% FBS (Gibco) overnight at 37°C in a humidified, 5% CO2 environment in sterile 24 well plates. The media was aspirated from the wells and serum free media supplemented with growth factors (DMEM: F-12 basal media supplemented with growth factor cocktail catalog number I1884 which contains insulin (5 micrograms/ml), transferrin (5 micrograms/ml) and sodium selenite (5 nanograms/ml) available from Sigma Chemical, St. Louis, Missouri) was added. Cells were incubated in this media for 24 hours. For a 5 minute therapeutic agent exposure, log dilutions of the therapeutic agent were incubated with the cells in complete media. After 5 minutes and media aspiration, 1 ml/well of 1.0 microcurie/ml ^3H-thymidine dispersed in complete media was added. The 24 hour exposure involved incubation of the cells with 1 ml/well of 1.0 microcurie/ml of ^3H-thymidine dispersed in complete media and log dilutions of the therapeutic agent being tested. In both exposure trials, the cells were then incubated overnight at 37°C in a humidified, 5% CO2 environment. The cells were visually scored for viability and cell number. […] Vials were counted on a Beckman LS2800 Liquid Scintillation counter interfaced with Beckman "Data Capture" software for conversion to a Lotus 1-2-3® file and analysis using Lotus 1-2-3®.

Row | SMILES | therapeutic range (area under the curve of 3H-leucine assay greater than that of 3H-thymidine assay) | inhibition of DNA synthesis compared with protein synthesis
1 | O=[N+]([O-])OCC(CO[N+](=O)[O-])O[N+](=O)[O-] [nitroglycerin] | showed an available therapeutic range | to a greater extent than they inhibited protein synthesis
2 | CN[C@@H]1C[C@H]2O[C@@](C)([C@@H]1OC)n1c3ccccc3c3c4c(c5c6ccccc6n2c5c31)C(=O)NC4 [staurosporin] | showed an available therapeutic range | 
3 | Cc1ccc(C(=O)Nc2ccc(S(=O)(=O)O)c3cc(S(=O)(=O)O)cc(S(=O)(=O)O)c23)cc1NC(=O)c1cccc(NC(=O)Nc2cccc(C(=O)Nc3cc(C(=O)Nc4ccc(S(=O)(=O)O)c5cc(S(=O)(=O)O)cc(S(=O)(=O)O)c45)ccc3C)c2)c1 [suramin] | showed an available therapeutic range | to a greater extent than they inhibited protein synthesis
